Measured values reported in US10287269B2, “Pyrazolyl pyrimidinone compounds as PDE2 inhibitors” (Merck Sharp & Dohme Corp., priority 2015, dated 2019).
Like-named read-outs stand apart in the source and are kept apart here.

Target: T1, human PDE2A1 (Homo sapiens, UniProt O00408)
T1 construct: GST; purchased BPS Bioscience (San Diego, Calif.) 60020; host or cells: insect cells
Test: PDE2 IMAP FP inhibition assay, human enzyme (PDE selectivity panel format)
Type: biochemical
Method in brief: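 GST-tagged human PDE2A1 from insect cells, run at room temperature in 10 mM Tris pH 7.2, 10 mM MgCl2, 1 mM DTT with 50 nM FAM-cAMP plus 1000 nM cGMP for 60 min. IMAP fluorescence polarization read-out; apparent Ki derived using apparent KM 10,000 nM.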

[1] = Lab B, read-out: Human PDE2 Ki (nM) Lab B
[2] = Lab A, read-out: Human PDE2 Ki (nM) Lab A

T1 sequence (O00408 1-920 isoform O00408-2): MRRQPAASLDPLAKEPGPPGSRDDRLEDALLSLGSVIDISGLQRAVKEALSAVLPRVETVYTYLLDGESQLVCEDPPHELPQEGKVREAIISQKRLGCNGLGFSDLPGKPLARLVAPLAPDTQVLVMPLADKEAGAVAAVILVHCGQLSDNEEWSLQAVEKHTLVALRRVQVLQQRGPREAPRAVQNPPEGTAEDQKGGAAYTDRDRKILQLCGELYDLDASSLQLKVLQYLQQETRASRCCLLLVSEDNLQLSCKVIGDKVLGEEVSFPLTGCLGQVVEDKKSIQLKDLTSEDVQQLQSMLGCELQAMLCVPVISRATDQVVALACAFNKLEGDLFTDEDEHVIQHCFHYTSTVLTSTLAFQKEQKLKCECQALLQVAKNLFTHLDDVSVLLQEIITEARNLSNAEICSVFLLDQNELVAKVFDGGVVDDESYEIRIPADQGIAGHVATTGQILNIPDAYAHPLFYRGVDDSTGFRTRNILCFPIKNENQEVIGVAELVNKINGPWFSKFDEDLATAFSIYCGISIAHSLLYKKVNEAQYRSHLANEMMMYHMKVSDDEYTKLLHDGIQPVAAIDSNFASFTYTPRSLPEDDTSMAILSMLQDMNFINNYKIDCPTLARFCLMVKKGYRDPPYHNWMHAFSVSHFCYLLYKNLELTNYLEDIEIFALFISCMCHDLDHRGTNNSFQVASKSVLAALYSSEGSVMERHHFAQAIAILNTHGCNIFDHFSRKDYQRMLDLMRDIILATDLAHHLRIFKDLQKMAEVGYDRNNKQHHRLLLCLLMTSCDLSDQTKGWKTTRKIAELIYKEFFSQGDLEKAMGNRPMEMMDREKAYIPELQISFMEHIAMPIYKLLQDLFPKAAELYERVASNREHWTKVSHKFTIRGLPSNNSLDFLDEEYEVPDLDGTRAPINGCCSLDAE

With `Cc1nc(-c2cnn(C(C)c3ccc(C(F)(F)F)cc3)c2C)cc(=O)[nH]1` (single isomer, unassigned) [Example 81, (R)- or (S)-2-methyl-6-(5-methyl-1-(1-(4-(trifluoromethyl)phenyl)ethyl)-1H-pyrazol-4-yl)pyrimidin-4(3H)-one] the Ki [1] was 194 nM.
Work on `Cc1nc(-n2ccc([C@H](C)c3ccc(C(F)(F)F)cc3)n2)cc(=O)[nH]1` (single isomer, unassigned) [Example 6] yielded a Ki [1] of 241 nM.
In the case of `Cc1nc(-c2cnn(C(C)c3ccc(C(F)(F)F)cc3)c2C)cc(=O)[nH]1` (single isomer, unassigned) [Example 82, (S)- or (R)-2-methyl-6-(5-methyl-1-{(1R)-1-[4-(trifluoromethyl)phenyl]ethyl}-1H-pyrazol-4-yl)pyrimidin-4(3H)-one], the Ki [1] was 184 nM.
`COc1ccc(Cc2nc(-c3cnn(C(C)c4ccc(C(F)(F)F)cc4F)c3)cc(=O)[nH]2)cc1OC` (single isomer, unassigned) [Example 66, (R)- or (S)-2-(3,4-dimethoxybenzyl)-6-(1-(1-(2-fluoro-4-(trifluoromethyl)phenyl)ethyl)-1H-pyrazol-4-yl)pyrimidin-4(3H)-one] showed a Ki [1] of 0.5 nM.
`CCc1ccc(C(C)n2cc(-c3cc(=O)[nH]c(C)n3)cn2)c(F)c1` (single isomer, unassigned) [Example 101, (R)- or (S)-6-(1-(1-(4-ethyl-2-fluorophenyl)ethyl)-1H-pyrazol-4-yl)-2-methylpyrimidin-4(3H)-one] gave a Ki [2] of 38.5 nM.
With `Cc1nc(-c2cn(C(C)c3ccc(C(F)(F)F)cc3)nc2C)cc(=O)[nH]1` (stereo not drawn) [Example 80, 2-methyl-6-(3-methyl-1-(1-(4-(trifluoromethyl)phenyl)ethyl)-1H-pyrazol-4-yl)pyrimidin-4(3H)-one] the Ki [1] was 140 nM.
In the case of `Cc1nc(-n2cc(Cc3ccc(C(F)(F)F)cc3)cn2)cc(=O)[nH]1` [Example 48, 2-methyl-6-(4-(4-(trifluoromethyl)benzyl)-1H-pyrazol-1-yl)pyrimidin-4(3H)-one], the Ki [1] was 219 nM.
`COc1cccc(Cc2nc(-c3cnn(C(C)c4ccc(C(F)(F)F)cc4F)c3)cc(=O)[nH]2)c1` (single isomer, unassigned) [Example 140, (R)- or (S)-6-(1-(1-(2-fluoro-4-(trifluoromethyl)phenyl)ethyl)-1H-pyrazol-4-yl)-2-(3-methoxybenzyl)pyrimidin-4(3H)-one] gave a Ki [2] of 2.6 nM.
Compound `Cc1nc(-c2cnn(Cc3ccc(OC(F)(F)F)cc3)c2)cc(=O)[nH]1` [Example 29, 2-Methyl-6-(1-(4-(trifluoromethoxy)benzyl)-1H-pyrazol-4-yl)pyrimidin-4(3H)-one] has a Ki [1] of 829 nM.
Work on `CCC(c1ccc(C(F)(F)F)cc1)c1cnn(-c2cc(=O)[nH]c(C)n2)c1` (stereo not drawn) [Example 129, 2-methyl-6-(4-(1-(4-(trifluoromethyl)phenyl)propyl)-1H-pyrazol-1-yl)pyrimidin-4(3H)-one] yielded a Ki [1] of 141 nM.
`COc1ccc(Cc2nc(-n3ccc(C(C)c4ccc(C(F)(F)F)cc4)n3)cc(=O)[nH]2)cc1OC` (single isomer, unassigned) [Example 134, (R)- or (S)-2-(3,4-dimethoxybenzyl)-6-(3-(1-(4-(trifluoromethyl)phenyl)ethyl)-1H-pyrazol-1-yl)pyrimidin-4(3H)-one] gave a Ki [1] of 66.6 nM.
In the case of `CC(c1ccc(C(F)(F)F)cc1F)n1cc(-c2cc(=O)[nH]c(Cc3ccccc3)n2)cn1` (stereo not drawn) [Example 35, 2-benzyl-6-(1-(1-(2-fluoro-4-(trifluoromethyl)phenyl)ethyl)-1H-pyrazol-4-yl)pyrimidin-4(3H)-one], the Ki [2] was 60.4 nM.
`Cc1nc(-n2cc(C3(C)OCc4cc(C(F)(F)F)ccc43)cn2)cc(=O)[nH]1` (single isomer, unassigned) [Example 27] gave a Ki [1] of 66.6 nM.
`Cc1nc(-c2cnn(C(C)c3ccc(C(F)(F)F)cc3F)c2)cc(=O)[nH]1` (single isomer, unassigned) [Example 136, (S)- or (R)-6-(1-(1-(2-fluoro-4-(trifluoromethyl)phenyl)ethyl)-1H-pyrazol-4-yl)-2-methylpyrimidin-4(3H)-one] showed a Ki [2] of 19.1 nM and a Ki [1] of 7.6 nM.
In the case of `COc1ccc(Cc2nc(-c3cnn(C(C)c4ccc(C(F)(F)F)cc4F)c3)cc(=O)[nH]2)cc1OC` (single isomer, unassigned) [Example 67], the Ki [2] was 0.2 nM and the Ki [1] was 0.1 nM.
`Cc1nc(-c2cnn(C(C)c3ccc(C(F)(F)F)cc3)c2)cc(=O)[nH]1` (stereo not drawn) [Example 126, 2-methyl-6-(1-(1-(4-(trifluoromethyl)phenyl)ethyl)-1H-pyrazol-4-yl)pyrimidin-4(3H)-one] showed a Ki [1] of 233 nM.
For `Cc1nc(-n2cc(Cc3ccc(OC(F)(F)F)cc3)cn2)cc(=O)[nH]1` [Example 30, 2-Methyl-6-(4-(4-(trifluoromethoxy)benzyl)-1H-pyrazol-1-yl)pyrimidin-4(3H)-one], the Ki [1] was 1110 nM.
`COc1cc(C(F)(F)F)ccc1[C@@H](C)n1cc(-c2cc(=O)[nH]c(C)n2)cn1` (single isomer, unassigned) [Example 2] was tested, and the Ki [2] was 41.5 nM and the Ki [1] was 17.1 nM.
`COc1cccc(Cc2nc(-c3cnn(C(C)c4ccc(C(F)(F)F)cc4F)c3)cc(=O)[nH]2)c1` (single isomer, unassigned) [Example 141, (S)- or (R)-6-(1-(1-(2-fluoro-4-(trifluoromethyl)phenyl)ethyl)-1H-pyrazol-4-yl)-2-(3-methoxybenzyl)pyrimidin-4(3H)-one] was tested, and the Ki [2] was 17.3 nM.
`Cc1nc(-n2cc(C(C)c3ccc(C(F)(F)F)cc3F)cn2)cc(=O)[nH]1` (single isomer, unassigned) [Example 53, (S)- or (R)-6-(4-(1-(2-fluoro-4-(trifluoromethyl)phenyl)ethyl)-1H-pyrazol-1-yl)-2-methylpyrimidin-4(3H)-one] gave a Ki [1] of 33.2 nM.
`CCC(c1ccc(C(F)(F)F)cc1F)n1cc(-c2cc(=O)[nH]c(C)n2)cn1` (stereo not drawn) [Example 33, 6-(1-(1-(2-fluoro-4-(trifluoromethyl)phenyl)propyl)-1H-pyrazol-4-yl)-2-methylpyrimidin-4(3H)-one] showed a Ki [2] of 32 nM.
`CCc1nc(-c2cnn(C(C)c3ccc(C(F)(F)F)cc3F)c2)cc(=O)[nH]1` (single isomer, unassigned) [Example 85, (R)- or (S)-2-ethyl-6-(1-(1-(2-fluoro-4-(trifluoromethyl)phenyl)ethyl)-1H-pyrazol-4-yl)pyrimidin-4(3H)-one] showed a Ki [2] of 10.4 nM.
`CCCC(c1ccc(C(F)(F)F)cc1)n1cc(-c2cc(=O)[nH]c(C)n2)cn1` (stereo not drawn) [Example 154, 2-methyl-6-(1-(1-(4-(trifluoromethyl)phenyl)butyl)-1H-pyrazol-4-yl)pynmidin-4(3H)-one] gave a Ki [1] of 265 nM.
`Cc1nc(-c2cnn(C(C)c3ccc(C4CC4)cc3F)c2)cc(=O)[nH]1` (single isomer, unassigned) [Example 91, (R)- or (S)-6-(1-(1-(4-cyclopropyl-2-fluorophenyl)ethyl)-1H-pyrazol-4-yl)-2-methylpyrimidin-4(3H)-one] was tested, and the Ki [2] was 48.4 nM.
With `Cc1nc(-c2ccn(C(C)c3ccc(C(F)(F)F)cc3)n2)cc(=O)[nH]1` (single isomer, unassigned) [Example 78, (S)- or (R)-2-methyl-6-(1-{(1R)-1-[4-(trifluoromethyl)phenyl]ethyl}-1H-pyrazol-3-yl)pyrimidin-4(3H)-one] the Ki [1] was 255 nM.
Work on `CC(C)c1nc(-c2cnn(C(C)c3ccc(C(F)(F)F)cc3F)c2)cc(=O)[nH]1` (stereo not drawn) [Example 9, 6-(1-(1-(2-Fluoro-4-(trifluoromethyl)phenyl)ethyl)-1H-pyrazol-4-yl)-2-isopropylpyrimidin-4(3H)-one] yielded a Ki [2] of 104 nM.
In the case of `Cc1nc(-c2cnn(C(c3ccc(C(F)(F)F)cc3F)C(C)C)c2)cc(=O)[nH]1` (stereo not drawn) [Example 34, 6-(1-(1-(2-fluoro-4-(trifluoromethyl)phenyl)-2-methylpropyl)-1H-pyrazol-4-yl)-2-methylpynmidin-4(3H)-one], the Ki [2] was 44.6 nM.
In the case of `COc1ccc(Cc2nc(-c3cnn(C(C)c4ccc(C(F)(F)F)cc4)c3)cc(=O)[nH]2)cc1OC` (single isomer, unassigned) [Example 60, (R)- or (S)-2-(3,4-dimethoxybenzyl)-6-(1-(1-4-(trifluoromethyl)phenyl)ethyl)-1H-pyrazol-4-yl)pyrimidin-4(3H)-one], the Ki [2] was 3.7 nM and the Ki [1] was 1.1 nM.
With `COc1ccc(Cc2nc(-c3cnn(C(C)c4ccc(C(F)(F)F)cc4F)c3)cc(=O)[nH]2)cc1F` (single isomer, unassigned) [Example 146, (R)- or (S)-6-(1-(1-(2-fluoro-4-(trifluoromethyl)phenyl)ethyl)-1H-pyrazol-4-yl)-2-(3-fluoro-4-methoxybenzyl)pyrimidin-4(3H)-one] the Ki [2] was 31.2 nM.
In the case of `Cc1nc(-n2ccc([C@H](C)c3ccc(C(F)(F)F)cc3)n2)cc(=O)[nH]1` (single isomer, unassigned) [Example 5], the Ki [1] was 174 nM.
Work on `COc1ccc(Cc2nc(-c3cnn(C(C)c4ccc(C(F)(F)F)cc4F)c3)cc(=O)[nH]2)cc1` (single isomer, unassigned) [Example 139, (S)- or (R)-6-(1-(1-(2-fluoro-4-(trifluoromethyl)phenyl)ethyl)-1H-pyrazol-4-yl)-2-(4-methoxybenzyl)pyrimidin-4(3H)-one] yielded a Ki [2] of 41.6 nM and a Ki [1] of 24.5 nM.
`Cc1nc(-c2cnn(C(C)c3ccc(C(F)(F)F)cc3F)c2)cc(=O)[nH]1` (single isomer, unassigned) [Example 135, (R)- or (S)-6-(1-(1-(2-fluoro-4-(trifluoromethyl)phenyl)ethyl)-1H-pyrazol-4-yl)-2-methylpyrimidin-4(3H)-one] gave a Ki [1] of 91.9 nM.
`Cc1nc(-n2cc([C@]3(c4ccc(C(F)(F)F)cc4)CCCO3)cn2)cc(=O)[nH]1` (single isomer, unassigned) [Example 22] showed a Ki [1] of 31.5 nM.
`COc1ccc(Cc2nc(-c3cnn(C(C)c4ccc(C(F)(F)F)cc4F)c3)cc(=O)[nH]2)cc1F` (single isomer, unassigned) [Example 147, (S)- or (R)-6-(1-(1-(2-fluoro-4-(trifluoromethyl)phenyl)ethyl)-1H-pyrazol-4-yl)-2-(3-fluoro-4-methoxybenzyl)pyrimidin-4(3H)-one] showed a Ki [2] of 3.3 nM.
